Test results from patent US12612410B2 (CHILDREN'S HOSPITAL MEDICAL CENTER, priority 2020, dated 2026).

How the values were obtained:
FLT3 = target: T1, FLT3 (Homo sapiens, UniProt P36888); assay: RBC HotSpot Kinase Assay, FLT3; type: biochemical; parameters: purchased Reaction Biology (RBC), HotSpot kinase assay; conditions: isolated kinase, 33P-ATP
T1 sequence (P36888 27-993): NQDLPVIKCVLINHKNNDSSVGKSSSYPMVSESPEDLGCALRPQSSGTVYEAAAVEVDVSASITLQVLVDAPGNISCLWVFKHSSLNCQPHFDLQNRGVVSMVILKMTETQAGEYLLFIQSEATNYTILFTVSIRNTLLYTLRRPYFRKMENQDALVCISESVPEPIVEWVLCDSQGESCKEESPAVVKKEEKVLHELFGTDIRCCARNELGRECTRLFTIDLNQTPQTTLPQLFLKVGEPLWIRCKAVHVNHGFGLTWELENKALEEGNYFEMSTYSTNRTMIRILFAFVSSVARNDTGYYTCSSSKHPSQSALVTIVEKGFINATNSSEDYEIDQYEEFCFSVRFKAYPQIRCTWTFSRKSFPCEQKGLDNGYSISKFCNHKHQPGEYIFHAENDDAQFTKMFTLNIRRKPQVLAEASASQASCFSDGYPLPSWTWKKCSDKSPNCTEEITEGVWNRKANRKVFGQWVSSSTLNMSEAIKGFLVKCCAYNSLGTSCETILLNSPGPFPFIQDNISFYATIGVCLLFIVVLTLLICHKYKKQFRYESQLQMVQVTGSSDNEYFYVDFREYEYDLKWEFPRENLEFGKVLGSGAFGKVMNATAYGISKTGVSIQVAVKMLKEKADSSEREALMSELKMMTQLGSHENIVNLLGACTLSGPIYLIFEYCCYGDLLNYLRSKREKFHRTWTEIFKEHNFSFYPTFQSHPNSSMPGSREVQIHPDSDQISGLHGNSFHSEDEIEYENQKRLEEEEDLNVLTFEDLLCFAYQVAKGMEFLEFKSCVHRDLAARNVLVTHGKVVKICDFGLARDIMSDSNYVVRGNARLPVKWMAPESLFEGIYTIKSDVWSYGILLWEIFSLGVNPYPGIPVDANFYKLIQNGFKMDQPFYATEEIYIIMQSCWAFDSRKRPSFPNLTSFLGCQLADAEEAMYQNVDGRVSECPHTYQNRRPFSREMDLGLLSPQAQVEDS
Procedure, shortened: (§1)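 Read-out was P81 filter binding of 33P incorporated into substrate by isolated kinase during a 2 h room-temperature reaction. Compound was preincubated with enzyme for 20 min at room temperature; buffer was Hepes pH 7.5 with Mg2+, EGTA, Brij35 and 1% DMSO.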

NF-κB [1] = assay: NF-kB SEAP reporter assay in THP-1-Blue NF-κB cells, Pam3CSK4 stimulation; type: cell-based; conditions: Pam3CSK4 1 ng/mL, read-out: NF-κB Pam3SCK4 IC50
Method: (§2) THP-1-Blue NF-xB cells (InvivoGen) carrying a stable integrated NF-κB-inducible secreted embryonic alkaline phosphatase (SEAP) reporter construct were plated at a concentration of 1×10^5 cells per well. The cells were stimulated with Pam3CSK4 (1 ng/mL) or hIL1B (1 ng/mL). After 10-20 minutes, the cells were then treated with vehicle (DMSO) or serial dilutions of the test compounds (10 doses tested for each test compound, with a 1:10 dilution series starting at 1 μM or 3 μM) with a final volume of 200 μL for 24 hours at 37° C. After 24 hours, the cells were centrifuged and 20 μL supernatant was incubated with 180 μL QUANTI-Blue reagent at 37° C. for 30-60 minutes. The levels of NF-κB-induced was measured in a microplate reader at 620 nm.

NF-κB [2] = assay: NF-kB SEAP reporter assay in THP-1-Blue NF-κB cells, hIL1B stimulation; type: cell-based; conditions: hIL1B 1 ng/mL, read-out: NF-κB IL1B IC50
Method: as §2

IRAK4 = target: T2, IRAK4 (Homo sapiens, UniProt Q9NWZ3); assay: RBC HotSpot Kinase Assay, IRAK4; type: biochemical; parameters: purchased Reaction Biology (RBC), HotSpot kinase assay; conditions: isolated kinase, 33P-ATP
T2 sequence (Q9NWZ3 1-460): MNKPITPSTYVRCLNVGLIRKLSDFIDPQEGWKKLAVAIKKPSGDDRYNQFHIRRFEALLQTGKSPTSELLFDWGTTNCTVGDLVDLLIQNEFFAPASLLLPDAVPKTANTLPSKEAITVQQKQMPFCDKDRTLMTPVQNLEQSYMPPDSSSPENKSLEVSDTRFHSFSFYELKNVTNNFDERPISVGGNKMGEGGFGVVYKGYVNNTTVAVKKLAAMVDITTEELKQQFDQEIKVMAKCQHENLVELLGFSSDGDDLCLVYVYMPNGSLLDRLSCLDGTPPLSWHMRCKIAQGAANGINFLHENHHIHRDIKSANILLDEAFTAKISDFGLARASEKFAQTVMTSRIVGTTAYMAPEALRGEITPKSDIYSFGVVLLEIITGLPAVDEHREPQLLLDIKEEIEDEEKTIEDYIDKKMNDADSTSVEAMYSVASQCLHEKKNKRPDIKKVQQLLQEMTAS
Procedure, shortened: as §1

IRAK1 = target: T3, IRAK1 (Homo sapiens, UniProt P51617); assay: RBC HotSpot Kinase Assay, IRAK1; type: biochemical; conditions: isolated kinase, 33P-ATP
T3 construct: purchased Reaction Biology (RBC), HotSpot kinase assay
T3 sequence (P51617 whole entry): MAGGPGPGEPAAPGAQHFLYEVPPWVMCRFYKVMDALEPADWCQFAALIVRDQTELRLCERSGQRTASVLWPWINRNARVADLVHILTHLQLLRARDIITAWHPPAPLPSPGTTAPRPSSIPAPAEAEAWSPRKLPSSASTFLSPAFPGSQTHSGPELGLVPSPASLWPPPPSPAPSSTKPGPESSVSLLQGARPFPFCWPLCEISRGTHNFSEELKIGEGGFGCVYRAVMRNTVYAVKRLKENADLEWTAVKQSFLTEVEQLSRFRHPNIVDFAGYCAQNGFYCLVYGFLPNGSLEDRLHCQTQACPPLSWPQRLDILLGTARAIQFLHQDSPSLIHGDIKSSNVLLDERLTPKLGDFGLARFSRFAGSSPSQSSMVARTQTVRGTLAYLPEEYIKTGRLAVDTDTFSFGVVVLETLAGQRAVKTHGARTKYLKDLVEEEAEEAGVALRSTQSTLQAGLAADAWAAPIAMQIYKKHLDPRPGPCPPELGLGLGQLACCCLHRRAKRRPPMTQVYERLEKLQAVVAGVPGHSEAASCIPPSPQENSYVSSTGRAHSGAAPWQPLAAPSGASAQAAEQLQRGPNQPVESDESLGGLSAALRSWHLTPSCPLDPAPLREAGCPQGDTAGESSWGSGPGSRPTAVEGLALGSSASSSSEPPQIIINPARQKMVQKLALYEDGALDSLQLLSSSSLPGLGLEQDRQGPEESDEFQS
Procedure, shortened: as §1

MOLM14 F691L cells = assay: MOLM14 F691L cell viability assay (Cell Titer Glo); type: cell-based; conditions: Homo sapiens, MOLM-14, 48 h
Procedure, shortened: (§3)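 MOLM14 cells carrying FLT3 D835Y or F691L were seeded at 1000 cells/well in RPMI-1640 with 20% FBS and dosed at 22 concentrations, 1:2 dilutions from 10 μM. Viability after 48 h by Cell Titer Glo luminescence; 2.3 μM bortezomib as cytotoxic control.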

MOLM14 D835Y cells = assay: MOLM14 D835Y cell viability assay (Cell Titer Glo); type: cell-based; conditions: Homo sapiens, MOLM-14, 48 h
Procedure, shortened: as §3

| SMILES | IC50 (FLT3) | IC50 (NF-κB [1]; 24 h) | IC50 (NF-κB [2]; 24 h) | IC50 (IRAK4) | IC50 (IRAK1) | IC50 (MOLM14 F691L cells) | IC50 (NF-κB [1]; 24 hours) | IC50 (NF-κB [2]; 24 hours) | IC50 (MOLM14 D835Y cells) |
| --- | --- | --- | --- | --- | --- | --- | --- | --- | --- |
| F[C@H]1CNC[C@@H]1Nc1cccc(-c2cnc3cnc(OCC(F)(F)F)cn23)n1 [Compound 36, N-((3S,4S)-4-fluoropyrrolidin-3-yl)-6-(6-(2,2,2-trifluoroethoxy)imidazo[1,2-a]pyrazin-3-yl)pyridin-2-amine] | < 0.5 nM | 17 nM | 40 nM | 1 nM | 190 nM | – | – | – | – |
| CC(C)Oc1cn2c(-c3cccc(N[C@H]4CNC[C@@H]4F)n3)cnc2cn1 [Compound 59, N-((3S,4S)-4-fluoropyrrolidin-3-yl)-6-(6-isopropoxyimidazo[1,2-a]pyrazin-3-yl)pyridin-2-amine] | < 0.5 nM | 24 nM | 144 nM | < 0.5 nM | 696 nM | – | – | – | – |
| O=S1(=O)CCCN1c1cn2c(-c3cccc(N[C@@H]4CCCNC4)n3)cnc2cn1 [Compound 96, (R)-2-(3-(6-(piperidin-3-ylamino)pyridin-2-yl)imidazo[1,2-a]pyrazin-6-yl)isothiazolidine 1,1-dioxide] | 0.9 nM | – | – | 2 nM | 49 nM | 39 nM | 20 nM | 263 nM | 7 nM |
| F[C@H]1CNC[C@@H]1Nc1cccc(-c2cnc3cnc(OCC4CC4)cn23)n1 [compound 60, 6-(6-(cyclopropylmethoxy)imidazo[1,2-a]pyrazin-3-yl)-N-((3S,4S)-4-fluoropyrrolidin-3-yl)pyridin-2-amine] | < 0.5 nM | 34 nM | 356 nM | 2 nM | 833 nM | – | – | – | – |
